{
  "source": "patent US6310273A",
  "about": "“Inhibiting apoptosis in plants using a baculovirus p35 protease inhibitor gene” (The Regents of the University of California, priority 1999, dated 2001)",
  "key": {"[1]": {"test_system": "Pseudomonas syringae pv. tomato in tomato leaves", "assay": "Leaf infiltration of bacteria with peptide inhibitor, cell death", "assay_type": "in vivo", "conditions": "compatible interaction; inhibitor syringe-infiltrated with bacteria into leaf", "procedure": "(§1) A leaf of the susceptible plant of interest is syringe or vacuum infiltrated with a concentration of virulent bacteria sufficient to cause disease and tissue death. A portion of the same leaf or another leaf on the same plant of similar position and age is infiltrated with bacteria and the tetrapeptide inhibitor. Usually a 0.5 mM concentration of inhibitor is sufficient to inhibit disease but may vary according to pathogen and host plant. Disease is permitted to develop under conditions suitable for the plant/pathogen combination. Symptoms are viewed over the course of the experiment to assess the level of symptom (death) inhibition by the caspase inhibitor compared to the control. The affect of the caspase inhibitor on bacterial growth can be assayed by taking samples of the tissue and performing growth curves of the pathogen as described in the literature.\n(§2) Host plant leaves are infiltrated with bacteria at a suitable concentration (10^4 -10^8 colony forming units per ml) to cause disease. Leaves of the same age and position on the same or a different plant are infiltrated with bacteria of the same concentration with the desired peptide inhibitor added. All solutions are infiltrated directly into the plant leaf lamina with a syringe. Disease symptoms in the form of dead areas of cells are quantified by time lapse color image capture and lesion area measurements determined by digital image analysis. Samples of the control tissue and inhibitor treated tissues are analyzed on a time course basis for bacterial growth rate.\n(§3) Pathogen growth is measured by grinding leaf disc samples in a suitable buffer followed by serial dilutions and plating of samples onto agar plates to determine the relative number of colonies produced. Colony counts are then related back to the original undiluted samples. Growth values are reported as means of several samples with appropriate statistical measures of mean separation. Differential effects of the inhibitors thus are measured both in terms of the amount of apoptotic cell death induced (symptoms) and by the effect of altering cell death induction on the amount of pathogen growth in the tissue."}, "[2]": {"test_system": "Pseudomonas syringae pv. tabaci in tobacco leaves", "assay": "Leaf infiltration of bacteria with peptide inhibitor, cell death", "assay_type": "in vivo", "conditions": "compatible interaction; inhibitor syringe-infiltrated with bacteria into leaf", "procedure": "as §1, §2, §3"}, "[3]": {"test_system": "Pseudomonas syringae pv. phaseolicola in tobacco leaves", "assay": "Leaf infiltration of bacteria with peptide inhibitor, cell death", "assay_type": "in vivo", "conditions": "incompatible interaction (non-host hypersensitive response); inhibitor syringe-infiltrated with bacteria into leaf"}, "[4]": {"test_system": "Pseudomonas syringae pv. tomato (avrPto) in tomato (Pto/Pto) leaves", "assay": "Leaf infiltration of bacteria with peptide inhibitor, cell death", "assay_type": "in vivo", "conditions": "incompatible interaction (host specific gene for gene hypersensitive response); inhibitor syringe-infiltrated with bacteria into leaf"}, "[5]": {"test_system": "Xanthamonas campestris pv tomato in tomato leaves", "assay": "Leaf infiltration of bacteria with peptide inhibitor, cell death", "assay_type": "in vivo", "conditions": "compatible interaction; inhibitor syringe-infiltrated with bacteria into leaf", "procedure": "as §1, §2, §3"}, "[6]": {"test_system": "Pseudomonas syringae pv. phaseolicola in bean leaves", "assay": "Leaf infiltration of bacteria with peptide inhibitor, cell death", "assay_type": "in vivo", "conditions": "compatible interaction; inhibitor syringe-infiltrated with bacteria into leaf", "procedure": "as §1, §2, §3"}, "[7]": {"test_system": "Pseudomonas syringae pv. angulata in tobacco leaves", "assay": "Leaf infiltration of bacteria with peptide inhibitor, cell death", "assay_type": "in vivo", "conditions": "compatible interaction; inhibitor syringe-infiltrated with bacteria into leaf", "procedure": "as §1, §2, §3"}, "[8]": {"test_system": "Pseudomonas syringae pv. syringae in tomato leaves", "assay": "Leaf infiltration of bacteria with peptide inhibitor, cell death", "assay_type": "in vivo", "conditions": "compatible interaction; inhibitor syringe-infiltrated with bacteria into leaf", "procedure": "as §1, §2, §3"}, "[9]": {"molecular_target": "T1, caspase-3 (CPP32, apopain, Yama) (Homo sapiens, UniProt P42574)", "T1 construct": "purchased BIOMOL Research Laboratories, Inc. AK-700", "T1 sequence (P42574 29-175 limits assumed)": "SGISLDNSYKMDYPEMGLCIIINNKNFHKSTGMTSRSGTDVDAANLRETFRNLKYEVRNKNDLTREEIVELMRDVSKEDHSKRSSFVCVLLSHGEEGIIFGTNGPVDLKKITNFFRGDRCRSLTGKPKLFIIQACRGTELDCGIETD", "T1 sequence (P42574 176-277 limits assumed)": "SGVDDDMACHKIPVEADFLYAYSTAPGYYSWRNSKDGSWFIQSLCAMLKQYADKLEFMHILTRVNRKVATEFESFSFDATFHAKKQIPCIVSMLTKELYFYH", "conditions": "0.1 uM inhibitor; 100 ul reaction, 30 units caspase-3, 0.2 mM DEVD-p-nitroanilide; cited from earlier work"}, "bean": {"test_system": "bean", "assay": "Blocking of apoptotic death or disease in bean", "assay_type": "in vivo"}, "tobacco": {"test_system": "tobacco", "assay": "Blocking of apoptotic death or disease in tobacco", "assay_type": "in vivo"}},
  "note": "Peptide text beside a SMILES is read from it.",
  "data": [
    {"compound": "CC(=O)N[C@@H](Cc1ccc(O)cc1)C(=O)N[C@H](C(=O)N[C@@H](C)C(=O)N[C@H](C=O)CC(=O)O)C(C)C", "note": "[Ac-YVAD-CHO]", "values": [
      {"measurement": "blocking of cell death", "setting": "[1]", "value": "blocks cell death but less well than others"},
      {"measurement": "blocking of cell death", "setting": "[2]", "value": "blocks cell death but less well than others"},
      {"measurement": "blocking of cell death", "setting": "[3]", "value": "blocks cell death but less well than others"}
    ]},
    {"compound": "Ac-DQMD-aldehyde", "values": [
      {"measurement": "blocking of cell death", "setting": "[4]", "value": "blocks cell death"}
    ]},
    {"compound": "CC(=O)N[C@@H](CC(=O)O)C(=O)N[C@@H](CCC(=O)O)C(=O)N[C@H](C(=O)N[C@H](C=O)CC(=O)O)C(C)C", "note": "[Ac-DEVD-CHO]", "values": [
      {"measurement": "blocking of cell death", "setting": "[4]", "value": "blocks cell death"},
      {"measurement": "blocking of cell death", "setting": "[1]", "value": "blocks cell death"},
      {"measurement": "blocking of cell death", "setting": "[5]", "value": "blocks cell death"},
      {"measurement": "blocking of cell death", "setting": "[6]", "value": "blocks cell death"},
      {"measurement": "blocking of cell death", "setting": "[2]", "value": "blocks cell death"},
      {"measurement": "blocking of cell death", "setting": "[7]", "value": "blocks cell death"},
      {"measurement": "blocking of cell death", "setting": "[8]", "value": "blocks cell death"},
      {"measurement": "blocking of caspase-3 activity", "setting": "[9]", "value": "completely blocked"},
      {"measurement": "blocking of cell death", "setting": "[3]", "value": "blocks cell death"}
    ]},
    {"compound": "CSCC[C@H](NC(=O)[C@H](CC(=O)O)NC(C)=O)C(=O)N[C@@H](CCC(N)=O)C(=O)N[C@H](C=O)CC(=O)O", "note": "[Ac-DMQD-CHO] (Ac-DMQD-aldehyde)", "values": [
      {"measurement": "blocking of cell death", "setting": "[1]", "value": "blocks cell death"},
      {"measurement": "blocking of cell death", "setting": "[2]", "value": "blocks cell death"},
      {"measurement": "blocking of cell death", "setting": "[3]", "value": "blocks cell death"}
    ]},
    {"compound": "Ac-Leu-Arg-Arg-aldehyde", "values": [
      {"measurement": "blocking of cell death", "setting": "[2]", "value": "does not block cell death"}
    ]},
    {"compound": "CC(=O)N[C@@H](CC(C)C)C(=O)N[C@@H](CC(C)C)C(=O)N[C@H](C=O)CCCNC(=N)N", "note": "[leupeptin]", "values": [
      {"measurement": "blocking apoptotic death or disease", "setting": "bean", "value": "not effective"},
      {"measurement": "blocking apoptotic death or disease", "setting": "tobacco", "value": "not effective"}
    ]}
  ]
}
